Results published in patent US8846698B2, “Pyrrolo[2,3-d]pyrimidine tropomysin-related kinase inhibitors” (Pfizer Limited, priority 2011, dated 2014).

Target: TRKA (Homo sapiens (Human), UniProt P04629)
Assay: Isolated TRK enzyme assay (HTRF KinEASE-TK), TRKA
Type: biochemical
Settings: read-out: Trka enzyme (IC50)

Sequence of TRKA (P04629 441-796): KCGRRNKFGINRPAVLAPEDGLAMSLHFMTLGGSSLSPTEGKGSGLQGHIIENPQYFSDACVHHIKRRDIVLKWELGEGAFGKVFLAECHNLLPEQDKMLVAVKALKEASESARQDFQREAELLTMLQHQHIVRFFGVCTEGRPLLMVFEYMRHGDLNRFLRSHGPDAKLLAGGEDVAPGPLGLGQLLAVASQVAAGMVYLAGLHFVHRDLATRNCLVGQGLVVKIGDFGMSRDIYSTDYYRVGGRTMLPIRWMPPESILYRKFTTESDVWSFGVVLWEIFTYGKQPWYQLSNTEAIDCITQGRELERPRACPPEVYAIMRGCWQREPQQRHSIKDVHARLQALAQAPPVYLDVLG

IC50 [nM]	SMILES
9810	Cn1cc(C(=O)c2cncc(NC(=O)Cc3ccc(NS(=O)(=O)C(F)(F)F)cc3)c2)c2cncnc21 [Example 331, N-{5-[(7-methyl-7H-pyrrolo[2,3-d]pyrimidin-5-yl)carbonyl]pyridin-3-yl}-2-(4-{[(trifluoromethyl)sulfonyl]amino}phenyl)acetamide]
2180	Cn1cc(C(=O)c2cncc(NC(=O)COc3ccccc3)c2)c2cncnc21 [Example 332, N-{5-[(7-methyl-7H-pyrrolo[2,3-d]pyrimidin-5-yl)carbonyl]pyridin-3-yl}-2-phenoxyacetamide]
9800	COCc1ccc(CC(=O)Nc2cncc(C(=O)c3cn(C)c4ncncc34)c2)cc1 [Example 333, 2-[4-(methoxymethyl)phenyl]-N-{5-[(7-methyl-7H-pyrrolo[2,3-d]pyrimidin-5-yl)carbonyl]pyridin-3-yl}acetamide]
1550	Cn1cc(C(=O)c2cncc(NC(=O)COc3ccc(F)cc3)c2)c2cncnc21 [Example 334, 2-(4-fluorophenoxy)-N-{5-[(7-methyl-7H-pyrrolo[2,3-d]pyrimidin-5-yl)carbonyl]pyridin-3-yl}acetamide]
9800	Cn1cc(C(=O)c2cncc(NC(=O)C3(c4ccccc4)CC3)c2)c2cncnc21 [Example 336, N-{5-[(7-methyl-7H-pyrrolo[2,3-d]pyrimidin-5-yl)carbonyl]pyridin-3-yl}-1-phenylcyclopropanecarboxamide]
4280	Cn1cc(C(=O)c2cncc(NC(=O)C3Cc4ccccc4C3)c2)c2cncnc21 [Example 337, N-{5-[(7-methyl-7H-pyrrolo[2,3-d]pyrimidin-5-yl)carbonyl]pyridin-3-yl}indane-2-carboxamide]
2730	C[C@@H](C(=O)Nc1cncc(C(=O)c2cn(C)c3ncncc23)c1)c1ccccc1 [Example 338, (2R)—N-{5-[(7-methyl-7H-pyrrolo[2,3-d]pyrimidin-5-yl)carbonyl]pyridin-3-yl}-2-phenylpropanamide]
251	CC(C)n1cc(C(=O)c2cncc(NC(=O)C(CO)c3ccccc3)c2)c2cncnc21 (stereo not drawn) [Example 339, 3-hydroxy-2-phenyl-N-(5-{[7-(propan-2-yl)-7H-pyrrolo[2,3-d]pyrimidin-5-yl]carbonyl}pyridin-3-yl)propanamide]
451	COc1ccc2c(ccn2CC(=O)Nc2cncc(C(=O)c3cn(C(C)C)c4ncncc34)c2)c1 [Example 340, N-{5-[(7-isopropyl-7H-pyrrolo[2,3-d]pyrimidin-5-yl)carbonyl]-pyridin-3-yl}-2-(5-methoxy-1H-indol-1-yl)acetamide]
53.9	CC(C)n1cc(C(=O)c2cncc(NC(=O)c3cccc(Cl)c3)c2)c2cncnc21 [Example 343, 3-chloro-N-(5-{[7-(propan-2-yl)-7H-pyrrolo[2,3-d]pyrimidin-5-yl]carbonyl}pyridin-3-yl)benzamide]
326	CC(C)n1cc(C(=O)c2cncc(NC(=O)c3ccc(Cl)cc3)c2)c2cncnc21 [Example 344, 4-chloro-N-(5-{[7-(propan-2-yl)-7H-pyrrolo[2,3-d]pyrimidin-5-yl]carbonyl}pyridin-3-yl)benzamide]
362	CC(C)n1cc(C(=O)c2cncc(NC(=O)c3ccc(C(F)(F)F)cc3)c2)c2cncnc21 [Example 345, N-(5-{[7-(propan-2-yl)-7H-pyrrolo[2,3-d]pyrimidin-5-yl]carbonyl}pyridin-3-yl)-4-(trifluoromethyl)benzamide]
253	CC(C)n1cc(C(=O)c2cncc(NC(=O)c3ccc(OC(F)(F)F)cc3)c2)c2cncnc21 [Example 346, N-(5-{[7-(propan-2-yl)-7H-pyrrolo[2,3-d]pyrimidin-5-yl]carbonyl}pyridin-3-yl)-4-(trifluoromethoxy)benzamide]
155	CC(C)n1cc(C(=O)c2cncc(NC(=O)COc3ccccc3C#N)c2)c2cncnc21 [Example 347, 2-(2-cyanophenoxy)-N-(5-{[7-(propan-2-yl)-7H-pyrrolo[2,3-d]pyrimidin-5-yl]carbonyl}pyridin-3-yl)acetamide]
36.6	CC(C)n1cc(C(=O)c2cncc(NC(=O)COc3ccc(OC(F)(F)F)cc3)c2)c2cncnc21 [Example 348, N-(5-{[7-(propan-2-yl)-7H-pyrrolo[2,3-d]pyrimidin-5-yl]carbonyl}pyridin-3-yl)-2-[4-(trifluoromethoxy)phenoxy]acetamide]
153	CC(C)n1cc(C(=O)c2cncc(NC(=O)C(N)c3ccc(Cl)cc3)c2)c2cncnc21 (stereo not drawn) [Example 350, 2-amino-2-(4-chlorophenyl)-N-(5-(7-isopropyl-7H-pyrrolo[2,3-d]pyrimidine-5-carbonyl)pyridin-3-yl)acetamide]

IC50 [nM]	SMILES
21.1	CC(C)(CO)n1cc(C(=O)c2cncc(NC(=O)Cc3ccc(C#N)cn3)c2)c2cnc(N)nc21 [Example 351, N-{5-[2-Amino-7-(2-hydroxy-1,1-dimethyl-ethyl)-7H-pyrrolo[2,3-d]pyrimidine-5-carbonyl]-pyridin-3-yl}-2-(5-cyano-pyridin-2-yl)-acetamide]
62.6	CC(C)n1cc(C(=O)c2cncc(NC(=O)Cc3cn(C4CC4)nc3C(F)(F)F)c2)c2cncnc21 [Example 352, 2-(1-Cyclopropyl-3-trifluoromethyl-1H-pyrazol-4-yl)-N-[5-(7-isopropyl-7H-pyrrolo[2,3-d]pyrimidine-5-carbonyl)-pyridin-3-yl]-acetamide]
9800	Cc1nc(C)n(CC(=O)Nc2cncc(C(=O)c3cn(C(C)C)c4ncncc34)c2)n1 [Example 358, 2-(3,5-Dimethyl-1,2,4-triazol-1-yl)-N-[5-(7-isopropyl-7H-pyrrolo[2,3-d]pyrimidine-5-carbonyl)-pyridin-3-yl]-acetamide]
9800	Cc1nccn1CC(=O)Nc1cncc(C(=O)c2cn(C(C)C)c3ncncc23)c1 [Example 359, N-[5-(7-Isopropyl-7H-pyrrolo[2,3-d]pyrimidine-5-carbonyl)-pyridin-3-yl]-2-(2-methyl-imidazol-1-yl)-acetamide]
956	CC(C)n1cc(C(=O)c2cncc(NC(=O)Cc3cn4ccsc4n3)c2)c2cncnc21 [Example 360, 2-Imidazo[2,1-b]thiazol-6-yl-N-[5-(7-isopropyl-7H-pyrrolo[2,3-d]pyrimidine-5-carbonyl)-pyridin-3-yl]-acetamide]
7640	CC(C)n1cc(C(=O)c2cncc(NC(=O)Cc3nnc(O)c4ccccc34)c2)c2cncnc21 [Example 361, 2-(4-Hydroxy-phthalazin-1-yl)-N-[5-(7-isopropyl-7H-pyrrolo[2,3-d]pyrimidine-5-carbonyl)-pyridin-3-yl]-acetamide]
1910	Cc1sc2nc(CC(=O)Nc3cncc(C(=O)c4cn(C(C)C)c5ncncc45)c3)cn2c1C [Example 362, 2-(2,3-Dimethyl-imidazo[2,1-b]thiazol-6-yl)-N-[5-(7-isopropyl-7H-pyrrolo[2,3-d]pyrimidine-5-carbonyl)-pyridin-3-yl]-acetamide]
1030	CC(C)n1cc(C(=O)c2cncc(NC(=O)Cn3cc(C4(O)CCCC4)nn3)c2)c2cncnc21 [Example 363, 2-[4-(1-Hydroxy-cyclopentyl)-1,2,3-triazol-1-yl]-N-[5-(7-isopropyl-7H-pyrrolo[2,3-d]pyrimidine-5-carbonyl)-pyridin-3-yl]-acetamide]
5040	Cc1cccc(-c2nnnn2CC(=O)Nc2cncc(C(=O)c3cn(C(C)C)c4ncncc34)c2)c1 [Example 364, N-[5-(7-Isopropyl-7H-pyrrolo[2,3-d]pyrimidine-5-carbonyl)-pyridin-3-yl]-2-(5-m-tolyl-tetrazol-1-yl)-acetamide]
2040	CC(C)n1cc(C(=O)c2cncc(NC(=O)Cn3cnc(-c4ccc(F)cc4)c3)c2)c2cncnc21 [Example 365, 2-[4-(4-Fluoro-phenyl)-imidazol-1-yl]-N-[5-(7-isopropyl-7H-pyrrolo[2,3-d]pyrimidine-5-carbonyl)-pyridin-3-yl]-acetamide]
354	CC(C)c1ccnn1CC(=O)Nc1cncc(C(=O)c2cn(C(C)C)c3ncncc23)c1 [Example 366, 2-(5-Isopropyl-pyrazol-1-yl)-N-[5-(7-isopropyl-7H-pyrrolo[2,3-d]pyrimidine-5-carbonyl)-pyridin-3-yl]-acetamide]
5640	CCc1nn2cc(CC(=O)Nc3cncc(C(=O)c4cn(C(C)C)c5ncncc45)c3)nc2s1 [Example 367, 2-(2-Ethyl-imidazo[2,1-b]-1,3,4-thiadiazol-6-yl)-N-[5-(7-isopropyl-7H-pyrrolo[2,3-d]pyrimidine-5-carbonyl)-pyridin-3-yl]-acetamide]
753	Cc1cn2cc(CC(=O)Nc3cncc(C(=O)c4cn(C(C)C)c5ncncc45)c3)nc2s1 [Example 368, N-[5-(7-Isopropyl-7H-pyrrolo[2,3-d]pyrimidine-5-carbonyl)-pyridin-3-yl]-2-(2-methyl-imidazo[2,1-b]thiazol-6-yl)-acetamide]
3000	Cc1nc(Cl)nn1CC(=O)Nc1cncc(C(=O)c2cn(C(C)C)c3ncncc23)c1 [Example 369, 2-(3-Chloro-5-methyl-1,2,4-triazol-1-yl)-N-[5-(7-isopropyl-7H-pyrrolo[2,3-d]pyrimidine-5-carbonyl)-pyridin-3-yl]-acetamide]
3540	CC(C)n1cc(C(=O)c2cncc(NC(=O)Cn3ccnc3-c3ccccc3)c2)c2cncnc21 [Example 370, N-[5-(7-Isopropyl-7H-pyrrolo[2,3-d]pyrimidine-5-carbonyl)-pyridin-3-yl]-2-(2-phenyl-imidazol-1-yl)-acetamide]

SMILES	IC50 [nM]
CC(C)n1cc(C(=O)c2cncc(NC(=O)Cn3cnc(Cl)c3Cl)c2)c2cncnc21 [Example 355, 2-(4,5-Dichloro-imidazol-1-yl)-N-[5-(7-isopropyl-7H-pyrrolo[2,3-d]pyrimidine-5-carbonyl)-pyridin-3-yl]-acetamide]	302
Cc1cc(C(F)F)n2nc(C(=O)Nc3cncc(C(=O)c4cn(C(C)C)c5ncncc45)c3)nc2n1 [Example 356, 7-Difluoromethyl-5-methyl-[1,2,4]triazolo[1,5-a]pyrimidine-2-carboxylic acid [5-(7-isopropyl-7H-pyrrolo[2,3-d]pyrimidine-5-carbonyl)-pyridin-3-yl]-amide]	56.3
